One assay addresses CMV-polymerase (Human cytomegalovirus (strain AD169) (HHV-5) (Human herpesvirus 5), UniProt P08546). Briefly: biochemical.
A further assay concerns CMV. The assay is described as follows: microbe, parasite or virus in culture. Type of assay: cell-based. The conditions noted are these: Human betaherpesvirus 5, 72 h, read-out: CMV-Luc Cellular EC50, NN-NHDF cells, MOI 1, 72 hrs.
The mark [1] stands for this setting: read-out: CMV-polymerase Biochemical IC50.
Setting [2] is: CMV-polymerase Biochemical IC50.

Read-outs that look alike come from different tables or passages of the source.

Take `Cn1nc(C(=O)NOc2ccc(Cl)cc2)c2c1C(=O)N(CC1(S(=O)(=O)C3(C)CC3)CC1)CC2` [Example 37, N-(4-Chlorophenoxy)-1-methyl-6-((1-((1-methylcyclopropyl)sulfonyl)cyclopropyl)methyl)-7-oxo-4,5,6,7-tetrahydro-1H-pyrazolo[3,4-c]pyridine-3-carboxamide]: the IC50 on CMV-polymerase (setting [1]) stood at 7 nM. Further, the EC50 with CMV is 105 nM.

The compound `Cn1nc(C(=O)NCc2ccc(Cl)cc2)c2c1C(=O)N(CC1(S(=O)(=O)C(F)F)CC1)CC2` [Example 39, N-(4-Chlorobenzyl)-6-((1-((difluoromethyl)sulfonyl)cyclopropyl)methyl)-1-methyl-7-oxo-4,5,6,7-tetrahydro-1H-pyrazolo[3,4-c]pyridine-3-carboxamide] yielded an IC50 against CMV-polymerase (setting [2]) of 25 nM. Moreover, the concentration giving a half-maximal response (EC50) in the assay on CMV was found to be 376 nM.

The compound `N#Cc1ccc(CNC(=O)c2nn(C3CC3)c3c2CCN(CC2(S(=O)(=O)C4CC4)CC2)C3=O)cc1` [Example 43, N-(4-Cyanobenzyl)-1-cyclopropyl-6-((1-(cyclopropylsulfonyl)cyclopropyl)methyl)-7-oxo-4,5,6,7-tetrahydro-1H-pyrazolo[3,4-c]pyridine-3-carboxamide] registered an IC50 on CMV-polymerase (setting [2]) of 2 nM. The EC50 in the assay with CMV amounted to 66 nM.

Consider `O=C(NCc1ccc(Cl)cc1)c1n[nH]c2c1CCN(CC1(S(=O)(=O)C3CC3)CC1)C2=O` [Example 44, N-(4-Chlorobenzyl)-6-((1-(cyclopropylsulfonyl)cyclopropyl)methyl)-7-oxo-4,5,6,7-tetrahydro-1H-pyrazolo[3,4-c]pyridine-3-carboxamide], for which, at CMV-polymerase (setting [2]), the concentration for half-maximal inhibition (IC50) amounted to 4 nM. Besides, in the assay with CMV, the EC50 is 76 nM.

Take `CS(=O)(=O)C1(CN2CCc3c(nn4c3C(=O)N(Cc3ccc(C#N)cc3)CC4)C2=O)CC1` [Example 46, 4-((8-((1-(Methylsulfonyl)cyclopropyl)methyl)-1,7-dioxo-3,4,7,8,9,10-hexahydropyrido[3′,4′:3,4]pyrazolo[1,5-a]pyrazin-2(1H)-yl)methyl)benzonitrile]: the IC50 at CMV-polymerase (setting [2]) is 41 nM. The EC50 in the assay with CMV stood at 746 nM.

For `N#Cc1ccc(CNC(=O)c2nn(CC3(CO)CC3)c3c2CCN(CC2(S(=O)(=O)C4CC4)CC2)C3=O)cc1` [Example 47, N-(4-Cyanobenzyl)-6-((1-(cyclopropylsulfonyl)cyclopropyl)methyl)-1-((1-(hydroxymethyl)cyclopropyl)methyl)-7-oxo-4,5,6,7-tetrahydro-1H-pyrazolo[3,4-c]pyridine-3-carboxamide], half-maximal inhibition at CMV-polymerase (setting [2]) (IC50) was put at 2 nM. In the assay with CMV, the EC50 is 42 nM.

Consider `CS(=O)(=O)C1(CN2CCc3c(C(=O)NCc4ccc(C#N)cc4)nn(CC4(CO)CC4)c3C2=O)CC1` [Example 48, N-(4-Cyanobenzyl)-1-((1-(hydroxymethyl)cyclopropyl)methyl)-6-((1-(methylsulfonyl)cyclopropyl)methyl)-7-oxo-4,5,6,7-tetrahydro-1H-pyrazolo[3,4-c]pyridine-3-carboxamide], for which, at CMV-polymerase (setting [2]), the half-maximal inhibitory concentration (IC50) worked out at 11 nM. Also, the EC50 in the assay on CMV is 331 nM.

Turning to `CC(C)(CO)S(=O)(=O)C1(CN2CCc3c(C(=O)NCc4ccc(C#N)cc4)n[nH]c3C2=O)CC1` [Example 49, N-(4-Cyanobenzyl)-6-((1-((1-hydroxy-2-methylpropan-2-yl)sulfonyl)cyclopropyl)methyl)-7-oxo-4,5,6,7-tetrahydro-1H-pyrazolo[3,4-c]pyridine-3-carboxamide], at CMV-polymerase (setting [2]), the half-maximal inhibitory concentration (IC50) came out at 4 nM. Besides, in the assay on CMV, the EC50 was found to be 58 nM.

On CMV-polymerase (setting [2]), `Cn1nc(C(=O)NCc2ccc(Cl)cc2)c2c1C(=O)N(CC1(S(=O)(=O)C(C)(C)CO)CC1)CC2` [Example 50, N-(4-Chlorobenzyl)-6-((1-((1-hydroxy-2-methylpropan-2-yl)sulfonyl)cyclopropyl)methyl)-1-methyl-7-oxo-4,5,6,7-tetrahydro-1H-pyrazolo[3,4-c]pyridine-3-carboxamide] returned an IC50 of 1 nM. Moreover, in the assay with CMV, the EC50 was 20 nM.

As to `Cn1nc(C(=O)NCc2ccc(Cl)nc2)c2c1C(=O)N(CC1(S(=O)(=O)C(C)(C)CO)CC1)CC2` [Example 51, N-((6-Chloropyridin-3-yl)methyl)-6-((1-((1-hydroxy-2-methylpropan-2-yl)sulfonyl)cyclopropyl)methyl)-1-methyl-7-oxo-4,5,6,7-tetrahydro-1H-pyrazolo[3,4-c]pyridine-3-carboxamide], the IC50 at CMV-polymerase (setting [1]) was determined as 6 nM. The EC50 with CMV came to 172 nM.

On to `Cn1nc(C(=O)NCc2ccc(C#N)cc2)c2c1C(=O)N(CC1(S(=O)(=O)C(C)(C)CO)CC1)CC2` [Example 52, N-(4-Cyanobenzyl)-6-((1-((1-hydroxy-2-methylpropan-2-yl)sulfonyl)cyclopropyl)methyl)-1-methyl-7-oxo-4,5,6,7-tetrahydro-1H-pyrazolo[3,4-c]pyridine-3-carboxamide], for which the IC50 at CMV-polymerase (setting [1]) turned out to be 1 nM. Further, the EC50 in the assay with CMV was 19 nM.

Turning to `Cn1nc(C(=O)NCc2ccc(F)cc2)c2c1C(=O)N(CC1(S(=O)(=O)C(C)(C)CO)CC1)CC2` [Example 53, N-(4-Fluorobenzyl)-6-((1-((1-hydroxy-2-methylpropan-2-yl)sulfonyl)cyclopropyl)methyl)-1-methyl-7-oxo-4,5,6,7-tetrahydro-1H-pyrazolo[3,4-c]pyridine-3-carboxamide], the IC50 on CMV-polymerase (setting [1]) stood at 7 nM. Besides, the EC50 with CMV came to 141 nM.

In the case of `C[C@H](NC(=O)c1nn(C)c2c1CCN(CC1(S(=O)(=O)C(C)(C)CO)CC1)C2=O)c1ccc(C#N)cc1` [Example 54, (S)-N-(1-(4-Cyanophenyl)ethyl)-6-((1-((1-hydroxy-2-methylpropan-2-yl)sulfonyl)cyclopropyl)methyl)-1-methyl-7-oxo-4,5,6,7-tetrahydro-1H-pyrazolo[3,4-c]pyridine-3-carboxamide], the IC50 on CMV-polymerase (setting [1]) came to 2 nM. Besides, the EC50 in the assay with CMV came to 53 nM.

In the case of `C[C@@H](NC(=O)c1nn(C)c2c1CCN(CC1(S(=O)(=O)C(C)(C)CO)CC1)C2=O)c1ccc(C#N)cc1` [Example 55, (R)-N-(1-(4-Cyanophenyl)ethyl)-6-((1-((1-hydroxy-2-methylpropan-2-yl)sulfonyl)cyclopropyl)methyl)-1-methyl-7-oxo-4,5,6,7-tetrahydro-1H-pyrazolo[3,4-c]pyridine-3-carboxamide], the IC50 on CMV-polymerase (setting [1]) is 601 nM. Besides, the EC50 in the assay with CMV was greater than 10000 nM.

`Cn1nc(C(=O)NCc2ccc(C#N)cc2)c2c1C(=O)N(CC1(S(=O)(=O)C(C)(C)COC(F)F)CC1)CC2` [Example 58, N-(4-Cyanobenzyl)-6-((1-((1-(difluoromethoxy)-2-methylpropan-2-yl)sulfonyl)cyclopropyl)methyl)-1-methyl-7-oxo-4,5,6,7-tetrahydro-1H-pyrazolo[3,4-c]pyridine-3-carboxamide]: the IC50 at CMV-polymerase (setting [1]) was 1 nM. In the assay on CMV, the 50% effective concentration (EC50) was determined as 25 nM.

In turn, `Cn1nc(C(=O)NCc2ccc(C#N)cc2)c2c1C(=O)N(CC1(S(=O)(=O)C(C)(C)C#N)CC1)CC2` [Example 59, N-(4-Cyanobenzyl)-6-((1-((2-cyanopropan-2-yl)sulfonyl)cyclopropyl)methyl)-1-methyl-7-oxo-4,5,6,7-tetrahydro-1H-pyrazolo[3,4-c]pyridine-3-carboxamide] had an IC50 at CMV-polymerase (setting [2]) of 1 nM. Moreover, the EC50 with CMV was 33 nM.

For `Cn1nc(C(=O)NCc2ccc(C#N)cc2)c2c1C(=O)N(CC1(S(=O)(=O)C(C)(C)CN3CC(F)C3)CC1)CC2` [Example 60, N-(4-Cyanobenzyl)-6-((1-((1-(3-fluoroazetidin-1-yl)-2-methylpropan-2-yl)sulfonyl)cyclopropyl)methyl)-1-methyl-7-oxo-4,5,6,7-tetrahydro-1H-pyrazolo[3,4-c]pyridine-3-carboxamide], at CMV-polymerase (setting [2]), it took 2 nM to reach half-maximal inhibition (IC50). In addition, in the assay on CMV, the EC50 is 62 nM.

Take `Cn1nc(C(=O)NCc2ccc(C#N)cc2)c2c1C(=O)N(CC1(S(=O)(=O)C(C)(C)CN3CCOCC3)CC1)CC2` [Example 61, N-(4-Cyanobenzyl)-1-methyl-6-((1-((2-methyl-1-morpholinopropan-2-yl)sulfonyl)cyclopropyl)methyl)-7-oxo-4,5,6,7-tetrahydro-1H-pyrazolo[3,4-c]pyridine-3-carboxamide]: the IC50 at CMV-polymerase (setting [1]) stood at 6 nM. The EC50 in the assay on CMV stood at 145 nM.

In the case of `CO[C@@H]1CCN(CC(C)(C)S(=O)(=O)C2(CN3CCc4c(C(=O)NCc5ccc(C#N)cc5)nn(C)c4C3=O)CC2)C1` [Example 62, (R)-N-(4-cyanobenzyl)-6-((1-((1-(3-methoxypyrrolidin-1-yl)-2-methylpropan-2-yl)sulfonyl)cyclopropyl)methyl)-1-methyl-7-oxo-4,5,6,7-tetrahydro-1H-pyrazolo[3,4-c]pyridine-3-carboxamide], the 50% inhibitory concentration (IC50) at CMV-polymerase (setting [1]) was 4 nM. Further, the half-maximal effective concentration (EC50) with CMV came to 136 nM.

On to `Cn1nc(C(=O)NCc2ccc(C#N)cc2)c2c1C(=O)N(CC1(S(=O)(=O)C(C)(C)CN3CC4CC(C3)O4)CC1)CC2` [Example 63, 6-((1-((1-(6-Oxa-3-azabicyclo[3.1.1]heptan-3-yl)-2-methylpropan-2-yl)sulfonyl)cyclopropyl)methyl)-N-(4-cyanobenzyl)-1-methyl-7-oxo-4,5,6,7-tetrahydro-1H-pyrazolo[3,4-c]pyridine-3-carboxamide], for which the IC50 on CMV-polymerase (setting [1]) turned out to be 6 nM. Also, the EC50 with CMV is 220 nM.

Take `Cn1nc(C(=O)NCc2ccc(C#N)cc2)c2c1C(=O)N(CC1(S(=O)(=O)C(C)(C)CN3CC4CC3CO4)CC1)CC2` (centres unmarked) [Example 64, 6-((1-((1-(2-Oxa-5-azabicyclo[2.2.1]heptan-5-yl)-2-methylpropan-2-yl)sulfonyl)cyclopropyl)methyl)-N-(4-cyanobenzyl)-1-methyl-7-oxo-4,5,6,7-tetrahydro-1H-pyrazolo[3,4-c]pyridine-3-carboxamide]: the IC50 at CMV-polymerase (setting [1]) came out at 4 nM. In the assay with CMV, the EC50 came out at 106 nM.

For `Cn1nc(C(=O)NCc2ccc(C#N)cc2)c2c1C(=O)N(CC1(S(=O)(=O)C(C)(C)CN3CC(O)C3)CC1)CC2` [Example 65, N-(4-Cyanobenzyl)-6-((1-((1-(3-hydroxyazetidin-1-yl)-2-methylpropan-2-yl)sulfonyl)cyclopropyl)methyl)-1-methyl-7-oxo-4,5,6,7-tetrahydro-1H-pyrazolo[3,4-c]pyridine-3-carboxamide], at CMV-polymerase (setting [1]), the IC50 worked out at 2 nM. Besides, in the assay on CMV, the EC50 was determined as 50 nM.

Values taken from patent publication US12338220B2, “Antiviral pyrazolopiridinone compounds” (Novartis AG, priority 2019, dated 2025).
